From EP4786466A1, “QUINAZOLINE DERIVATIVE, SALT THEREOF, AND PHARMACEUTICAL COMPOSITION COMPRISING SAME AS ACTIVE INGREDIENT” (Korea Research Institute of Chemical Technology, priority 2023, dated 2025) come the findings set out here.

For orientation: IC50 means the point on the concentration scale where inhibition reaches its midpoint.

In test [1] the test system is MCF7 breast cancer cell lines. In words: Cell viability analysis, WST-8 assay, MCF7. Particulars: Homo sapiens, MCF7, 72 h; for viability at 10 µM: read-out: Cell viability (%) WST-8, MCF7, footnote b: concentration 10 µM, 72 hours; for IC50: read-out: IC50 Cell viability (MCF7). (In general: Tetrazolium assays rely on reduction of a dye to a coloured formazan, in cell work by metabolically active cells.)
Method: MCF7 breast cancer cell lines and MCF10A normal breast cancer cell lines were treated with serial dilutions of the compounds of the present invention ranging from 1 µM to 15.63 nM for 72 hours. Cell viability was measured by the WST-8 assay (Cyto XTM cell viability assay kit; LPS solution, Daejeon, Korea) according to the manufacturer's instructions.

In test [2] the target is T1, Recombinant GST-TAG-MASTL (Homo sapiens, UniProt Q96GX5).
T1 construct: GST; purchased Thermo Fisher Scientific
T1 sequence (Q96GX5 1-879): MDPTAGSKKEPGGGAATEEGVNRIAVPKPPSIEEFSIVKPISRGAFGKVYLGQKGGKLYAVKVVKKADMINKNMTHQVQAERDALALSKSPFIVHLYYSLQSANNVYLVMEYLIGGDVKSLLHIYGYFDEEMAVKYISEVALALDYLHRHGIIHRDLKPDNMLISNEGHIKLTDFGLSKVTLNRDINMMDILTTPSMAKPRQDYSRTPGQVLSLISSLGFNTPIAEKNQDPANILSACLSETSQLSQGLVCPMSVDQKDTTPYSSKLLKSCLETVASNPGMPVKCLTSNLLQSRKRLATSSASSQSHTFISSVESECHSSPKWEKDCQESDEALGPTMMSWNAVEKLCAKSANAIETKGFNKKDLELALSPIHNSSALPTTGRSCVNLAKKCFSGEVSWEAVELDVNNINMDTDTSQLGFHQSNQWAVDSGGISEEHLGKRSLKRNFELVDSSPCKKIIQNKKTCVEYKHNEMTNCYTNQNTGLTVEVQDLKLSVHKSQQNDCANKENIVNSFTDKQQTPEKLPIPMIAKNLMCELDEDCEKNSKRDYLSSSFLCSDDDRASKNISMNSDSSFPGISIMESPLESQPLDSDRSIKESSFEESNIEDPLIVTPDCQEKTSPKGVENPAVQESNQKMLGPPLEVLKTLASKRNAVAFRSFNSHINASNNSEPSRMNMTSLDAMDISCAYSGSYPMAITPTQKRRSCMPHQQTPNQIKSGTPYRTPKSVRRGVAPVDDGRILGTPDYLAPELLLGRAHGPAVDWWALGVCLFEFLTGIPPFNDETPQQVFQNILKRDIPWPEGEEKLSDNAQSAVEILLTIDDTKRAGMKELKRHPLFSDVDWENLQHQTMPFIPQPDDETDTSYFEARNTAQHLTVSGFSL
In words: HTRF-based kinase assay (HTRF KinEASE assay kit). The format is biochemical. Particulars: for activity at 1 µM: read-out: MASTL activity (%) HTRF (1 µM). An excerpt: Recombinant GST-TAG-MASTL (Thermo Fisher Scientific, MA, USA) was used for HTRF-based kinase assays. The HTRF KinEASE assay kit (CisBio, MA, USA) was used according to the manufacturer's instructions.
In general terms: TR-FRET usually uses a lanthanide donor and a delayed reading to cut background.

For the next test, the system named is pENSA. In words: pENSA level by immunofluorescence (described method: in vitro kinase analysis with GST-tag-MASTL and His-tag-ENSA). The format is cell-based. Conditions: for pENSA (%) Immunofluor ecense (1 µM): compound 1 µM. How it is done:
Two recombinant GST-tag-MASTL (Thermo Fisher Scientific) and His-tag-ENSA (Sino Biological Inc., Beijing, China) were used for in vitro kinase analysis. In vitro kinase analysis was performed as described in the literature [Front Oncol 2020, 10, 571601, 39-202021-10-20doi:10.3389/fonc.2020.571601.].
Phosphorylated ENSA (pENSA), which is activated by phosphorylation by MASTL, can be utilized as a biomarker as it is expected that its activity will be inhibited along with the inhibition of MASTL. In the cell viability assay, MCF7 refers to a breast cancer cell line, and MCF10A refers to a normal breast […] cell line.

The mark [3] stands for this setting: read-out: MASTL activity (%) HTRF.
Setting [4] is: footnote b: concentration 10 µM.
[5] abbreviates: read-out: Cell viability (%) WST-8, MCF7 (1 µM), compound 1 µM, 72 hours.
Where [6] appears, read: read-out: Cell viability (%) WST-8, MCF7 (1 µM).
Where [7] appears, read: HTRF, read-out: IC50(nM) MASTL activity.
[8] abbreviates: footnote b: concentration 10 µM, read-out: MASTL activity (%) HTRF.

Structures are written as SMILES. Like-named read-outs stand apart in the source and are kept apart here.

On to `Cc1nn(CC(C)C)c(C)c1Nc1nc(Nc2ccc(CC#N)cc2)nc2ccccc12` [compound 3b, 2-(4-((4-((1-isobutyl-3,5-dimethyl-1G-pyrazol-4-yl)amino)quinazolin-2-yl)amino)phenyl)acetonitrile], for which, in test [1], the viability at 10 µM was found to be 55.5%. In addition, the activity at 10 µM in test [2] (setting [3]) was found to be 123%. Further, the “pENSA (%) Immunofluor ecense” value in the test on pENSA (setting [4]) is 44.3^b %.

For `Cc1n[nH]cc1Nc1nc(Nc2ccc(CC#N)cc2)nc2ccccc12` [compound 3e, 2-(4-((4-((3-methyl-1G-pyrazol-4-yl)amino)quinazolin-2-yl)amino)phenyl)acetonitrile], the viability at 10 µM in test [1] came out at 108%. Further, the activity at 10 µM in test [2] (setting [3]) was found to be 100%. Further, the “pENSA (%) Immunofluor ecense” value with pENSA (setting [4]) is 102^b %.

Turning to `N#CCc1ccc(Nc2nc(Nc3cc[nH]n3)c3ccccc3n2)cc1` [compound 3o, 2-(4-((4-((1G-pyrazol-3-yl)amino)quinazolin-2-yl)amino)phenyl)acetonitrile], the viability at 1 µM in test [1] (setting [5]) was 108%. Moreover, in test [2], the IC50 stood at 2600 nM and the activity at 1 µM was determined as 102%.

For the molecule `Cc1cc(Nc2nc(Nc3ccc(CC#N)cc3)nc3ccccc23)n[nH]1` [compound 3p, 2-(4-((4-((5-methyl-1G-pyrazol-3-yl)amino)quinazolin-2-yl)amino)phenyl)acetonitrile], in test [1] (setting [6]), the viability at 1 µM worked out at 106%. The half-inhibitory concentration (IC50) in test [2] (setting [7]) is 330 nM; in the test with pENSA (read-out: IC50(nM) pENSA), 239 nM. Further, the activity at 1 µM in test [2] (compound 1 µM) is 53.1%. Moreover, the “pENSA (%) Immunofluor ecense (1 µM)” value with pENSA is given as 27.5%.

Consider `N#CCc1ccc(Nc2nc(Nc3cc(Br)[nH]n3)c3ccccc3n2)cc1` [compound 3q, 2-(4-((4-((5-bromo-1G-pyrazol-3-yl)amino)quinazolin-2-yl)amino)phenyl)acetonitrile], for which, in test [1] (setting [5]), the viability at 1 µM was determined as 105%. In test [2], the IC50 turned out to be 640 nM and the activity at 1 µM was determined as 63.1%.

For the molecule `COc1cc(Nc2nc(Nc3ccc(CC#N)cc3)nc3ccccc23)n[nH]1` [compound 3r, 2-(4-((4-((5-methoxy-1G-pyrazol-3-yl)amino)quinazolin-2-yl)amino)phenyl)acetonitrile], the viability at 1 µM in test [1] (setting [5]) turned out to be 98.3%. In addition, in test [2], the IC50 stood at 816 nM and the activity at 1 µM came to 67.2%.

With `N#CCc1ccc(Nc2nc(Nc3n[nH]c4ccccc34)c3ccccc3n2)cc1` [compound 3s, 2-(4-((4-((1G-indazol-3-yl)amino)quinazolin-2-yl)amino)phenyl)acetonitrile], the viability at 1 µM in test [1] (setting [6]) was 100%. Also, the half-inhibitory concentration (IC50) in test [2] (HTRF, unit µM, read-out: IC50 MASTL activity) came to 4400 nM. Moreover, the activity at 1 µM in test [2] (compound 1 µM) was 102%. The “pENSA (%) Immunofluor ecense (1 µM)” value in the test with pENSA turned out to be 60.6%.

Take `N#CCc1ccc(Nc2nc(Nc3ccccc3OCc3ccccc3)c3ccccc3n2)cc1` [compound 3t, 2-(4-((4-((2-(benzyloxy)phenyl)amino)quinazolin-2-yl)amino)phenyl)acetonitrile]: the viability at 1 µM in test [1] (setting [5]) worked out at 45.4%. Besides, the activity at 1 µM in test [2] (compound 1 µM) stood at 120%.

As to `N#CCc1ccc(Nc2nc(Nc3ccccc3O)c3ccccc3n2)cc1` [compound 3u, 2-(4-((4-((2-hydroxyphenyl)amino)quinazolin-2-yl)amino)phenyl)acetonitrile], the viability at 1 µM in test [1] (setting [5]) was found to be 49.3%. Besides, in test [2] (compound 1 µM), the activity at 1 µM came out at 121%. Besides, the IC50 in the test on pENSA (read-out: IC50(nM) pENSA) stood at 678 nM.

As for `O=S(=O)(c1ccc(-c2ccccc2)cc1)N1CC2CC1CN2c1nc(Nc2cc(C3CC3)[nH]n2)c2ccccc2n1` (centres unmarked) [compound 15aa, 2-(5-([1,1'-biphenyl]-4-ylsulfonyl)-2,5-diazabicyclo[2.2.1]heptan-2-yl)-M-(5-cyclopropyl-1G-pyrazol-3-yl)quinazolin-4-amine], the viability at 1.1 µM in test [1] (read-out: Cell viability (%) WST-8, MCF7, footnote d: concentration 1.1 µM, 72 hours) was found to be 87.5%. Besides, the activity at 1.1 µM in test [2] (setting [3]) is 55.5%. The “pENSA (%) Immunofluor ecense” value with pENSA (footnote d: concentration 1.1 µM) is listed as 61.2^d %.

Take `O=S(=O)(c1cccs1)N1CC2CC1CN2c1nc(Nc2cc(C3CC3)[nH]n2)c2ccccc2n1` (centres unmarked) [compound 15ab, M-(5-cyclopropyl-1G-pyrazol-3-yl)-2-(5-(thiophen-2-ylsulfonyl)-2,5-diazabicyclo[2.2.1]heptan-2-yl)quinazolin-4-amine]: in test [1], the viability at 10 µM turned out to be 3.9%. Further, the concentration for half-maximal inhibition (IC50) in test [1] came to 2.4 µM; in test [2] (setting [7]), 222 nM; in the test with pENSA (unit µM, read-out: IC50 pENSA), 2500 nM. In addition, in test [2] (setting [8]), the activity at 10 µM was determined as 17.3%. Further, the “pENSA (%) Immunofluor ecense” value in the test with pENSA (setting [4]) is reported as 0.4^b %.

Turning to `O=S(=O)(C1CC1)N1CC2CC1CN2c1nc(Nc2cc(C3CC3)[nH]n2)c2ccccc2n1` (centres unmarked) [compound 15i, M-(5-cyclopropyl-1G-pyrazol-3-yl)-2-(5-(cyclopropylsulfonyl)-2,5-diazabicyclo[2.2.1]heptan-2-yl)quinazolin-4-amine], in test [1], the viability at 10 µM was found to be 5.2%. Further, the IC50 was found to be 2 µM in test [1]; 310 nM in test [2] (setting [7]); 2100 nM with pENSA (unit µM, read-out: IC50 pENSA). For the same molecule, the activity at 10 µM in test [2] (setting [8]) is 15.5%. The “pENSA (%) Immunofluor ecense” value in the test on pENSA (setting [4]) is 0.2^b %.

As for `O=S(=O)(C1CCCCC1)N1CC2CC1CN2c1nc(Nc2cc(C3CC3)[nH]n2)c2ccccc2n1` (centres unmarked) [compound 15k, 2-(5-(cyclohexylsulfonyl)-2,5-diazabicyclo[2.2.1]heptan-2-yl)-M-(5-cyclopropyl-1G-pyrazol-3-yl)quinazolin-4-amine], the viability at 10 µM in test [1] stood at 12.7%. Also, the IC50 in test [1] worked out at 4.1 µM; in test [2] (setting [7]) it was 152 nM; in the test with pENSA (unit µM, read-out: IC50 pENSA), 3500 nM. In addition, the activity at 10 µM in test [2] (setting [8]) came out at 11.3%. In the test with pENSA (setting [4]), the “pENSA (%) Immunofluor ecense” value is 0.5^b %.

As for `O=S(=O)(Cc1ccccc1)N1CC2CC1CN2c1nc(Nc2cc(C3CC3)[nH]n2)c2ccccc2n1` (centres unmarked) [compound 15l, 2-(5-(benzylsulfonyl)-2,5-diazabicyclo[2.2.1]heptan-2-yl)-M-(5-cyclopropyl-1G-pyrazol-3-yl)quinazolin-4-amine], the viability at 10 µM in test [1] came to 2.4%. Also, the IC50 is 2.7 µM in test [1]; 226 nM in test [2] (setting [7]); 3700 nM with pENSA (unit µM, read-out: IC50 pENSA). For the same molecule, the activity at 10 µM in test [2] (setting [8]) came to 18.1%. In addition, in the test on pENSA (setting [4]), the “pENSA (%) Immunofluor ecense” value was 1.9^b %.

As for `O=S(=O)(c1c(F)cccc1F)N1CC2CC1CN2c1nc(Nc2cc(C3CC3)[nH]n2)c2ccccc2n1` (centres unmarked) [compound 15p, M-(5-cyclopropyl-1G-pyrazol-3-yl)-2-(5-((2,6-difluorophenyl)sulfonyl)-2,5-diazabicyclo[2.2.1]heptan-2-yl)quinazolin-4-amine], the viability at 10 µM in test [1] amounted to 7.4%. Besides, the IC50 in test [1] worked out at 4.1 µM; in test [2] (setting [7]) it was 331 nM; in the test on pENSA (unit µM, read-out: IC50 pENSA), 4400 nM. The activity at 10 µM in test [2] (setting [8]) is 180%. Moreover, the “pENSA (%) Immunofluor ecense” value in the test with pENSA (setting [4]) was 2.6^b %.

For the molecule `COc1cccc(S(=O)(=O)N2CC3CC2CN3c2nc(Nc3cc(C4CC4)[nH]n3)c3ccccc3n2)c1` (centres unmarked) [compound 15r, M-(5-cyclopropyl-1G-pyrazol-3-yl)-2-(5-((3-methoxyphenyl)sulfonyl)-2,5-diazabicyclo[2.2.1]heptan-2-yl)quinazolin-4-amine], the viability at 10 µM in test [1] worked out at 19%. In addition, the IC50 is 4.3 µM in test [1]; 492 nM in test [2] (setting [7]); 5500 nM with pENSA (unit µM, read-out: IC50 pENSA). The activity at 10 µM in test [2] (setting [8]) worked out at 22.7%. Also, in the test on pENSA (setting [4]), the “pENSA (%) Immunofluor ecense” value is listed as 0.2^b %.
